Like-named read-outs stand apart in the source and are kept apart here. Numbered stars: 1 amine (or outer) side, 2 acyl side, 3 side chain; on linkers, the order of the positions; unused ones are H or OH. Bridge positions count the residues as written; N and C are the ends. Square brackets hold non-standard residues; d marks the D form. Peptide text beside a SMILES is read from it. I, II: the chains in the order shown. Actinocin(9to1) = Cc1c2oc3c(C)ccc(C(=O)[*:1])c3nc-2c(C(=O)[*:2])c(N)c1=O; dHica = CC(C)C[C@@H](O)C(=O)O; NMeV = CN[C@H](C(=O)O)C(C)C; NMeA = CN[C@@H](C)C(=O)O; βAla = NCCC(=O)O; Sar = CNCC(=O)O
Biological target: T1, P2X7 (Homo sapiens, UniProt Q99572)
T1 construct: expressed in transfected cells
T1 sequence (Q99572 1-595): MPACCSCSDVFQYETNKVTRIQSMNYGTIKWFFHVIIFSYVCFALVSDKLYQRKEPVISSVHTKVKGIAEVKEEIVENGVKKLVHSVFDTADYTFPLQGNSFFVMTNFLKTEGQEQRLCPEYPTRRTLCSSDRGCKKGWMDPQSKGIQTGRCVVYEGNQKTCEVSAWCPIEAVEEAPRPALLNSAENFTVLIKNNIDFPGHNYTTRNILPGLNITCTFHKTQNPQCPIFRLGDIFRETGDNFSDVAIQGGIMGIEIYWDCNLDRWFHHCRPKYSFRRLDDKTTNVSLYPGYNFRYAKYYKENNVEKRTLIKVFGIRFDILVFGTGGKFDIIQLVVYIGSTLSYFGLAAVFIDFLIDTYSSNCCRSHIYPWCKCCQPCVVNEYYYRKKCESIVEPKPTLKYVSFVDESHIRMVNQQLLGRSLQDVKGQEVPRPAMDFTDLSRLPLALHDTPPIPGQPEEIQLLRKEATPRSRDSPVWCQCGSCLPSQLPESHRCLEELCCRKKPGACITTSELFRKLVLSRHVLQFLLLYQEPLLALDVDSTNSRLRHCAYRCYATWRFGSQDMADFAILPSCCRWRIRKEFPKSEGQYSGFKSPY
Test: ATP-induced YO-PRO-1 dye uptake in HEK-hP2X7 cells
Type: cell-based
Settings: for P2X7 response (% of control): compound 10 µM injected 60 s before ATP; for Effect on ATP-mediated YO-PRO-1 uptake: 10 µM, 10 min pre-incubation
Protocol: HEK-hP2X7 or HEK-hP2X4 cells were plated at 2.5 × 10^4 cells per well (100 µL volume) the day before experiments into poly-D-lysine (Merck Millipore) coated 96-well plates (NUNC, Fisher Scientific #167-008). The membrane impermeant dye YO-PRO-1 iodide (Life Technologies, Fisher Scientific) was used at a final concentration of 2 µM in low divalent buffer (145 mM NaCl, 5 mM KCl, 0.2 mM CaCl2, 13 mM glucose, 10 mM HEPES, pH 7.3, osm 300–310). Media were removed from the plate, and 90 µL of YO-PRO-1 buffer was added per well. Plates were warmed to 37 °C for 5 min before recording. Data was acquired on a Flexstation 3 plate reader (Molecular Devices) using excitation wavelength 490 nm, emission wavelength 520 nm, and six reads per well (PMT medium). […] […] Pipette height was set to 80 µL and the rate of injection was 4.
YO-PRO-1 dye uptake assay data is plotted as a percentage of control where control responses are measured in the absence of plant extract. Cell viability data is plotted as a percentage of control or background-corrected fluorescence data. Concentration–response graphs were plotted using GraphPad Prism v6 with a non-linear regression fit (variable slope). IC50 values were generated from collated datasets from a minimum of three independent experiments. Statistical differences were determined by one-way ANOVA statistical tests performed using GraphPad Prism v6 with Dunnett’s multiple comparison post hoc test. Significance was taken as P ≤ 0.05.
We acquired a natural product library (Set IV) containing 419 compounds from NCI DTP and tested these on P2X7 responses using a YO-PRO-1 dye uptake in HEK293 cells stably expressing human P2X7 (HEK-hP2X7). […] This allowed us to assess for any immediate effect of the injected compound, and secondly, it allowed for any potential negative modulators to be pre-incubated with P2X7.

[1] = screen for potential negative allosteric modulators

| Molecule | P2X7 response (% of control) (screen for PAM activity) | P2X7 response (% of control) [1] | further results |
| --- | --- | --- | --- |
| Nc1nc(=O)c2c([nH]1)NCC(CNc1ccc(C(=O)N[C@@H](CCC(=O)O)C(=O)O)cc1)N2C=O (mixture of isomers) [Folinic acid, reference compound] | 160.00 % of control |  |  |
| CC(=O)O[C@H]1C[C@]2(O)[C@@H]3CC[C@@H]4C[C@@H](O)CC[C@]4(C)[C@H]3CC[C@]2(C)[C@H]1C1=CC(=O)OC1 [Oleandrogenin] |  | 42.33 % of control |  |
| O=C1CSC(=O)N1C(CCc1ccncc1)COc1ccc(-c2cccc([N+](=O)[O-])c2)cc1 (stereo not shown) [AZ11645373, reference compound] |  |  | IC50 (HEK-hP2X7, 10 min pre-treatment, ATP 1 mM, read-out: IC50 value (95% CI)): 0.153 µM |
| COc1cc([C@@H]2c3cc4c(cc3C[C@H]3COC(=O)[C@@H]32)OCO4)cc(OC)c1OC [Anthricin] |  | 30.94 % of control |  |
| COc1cc2c3c(c1O)-c1cc(O)ccc1CC3N(C)CC2 (stereo not shown) [NSC785186] | 146.91 % of control |  |  |
| COC1=C(N)C(=O)c2nc(-c3nc(C(=O)O)c(C)c(-c4ccc(OC)c(OC)c4O)c3N)ccc2C1=O [Streptonigrin] | 139.02 % of control |  |  |
| COc1c2ccoc2cc2oc(=O)ccc12 [Bergapten] |  |  | Effect on YO-PRO-1 uptake at high concentrations (> 30 µM, HEK-hP2X7): reduction of YO-PRO-1 uptake in hP2X7 cells at high concentrations |
| COc1cc(C=O)ccc1O [Vanilline] | 158.27 % of control |  |  |
| CC(C)=CCC[C@@H](C)C1=C(O)C(=O)C(C)=CC1=O [Perezone] | 148.44 % of control |  |  |
| COC(=O)/C(=C1/OC(=O)C(c2ccccc2)=C1O)c1ccccc1 [Vulpinic acid] | 150.3 % of control |  |  |
| COc1cc2c(c3c1c(=O)c1ccccc1n3C)C=CC(C)(C)O2 [Acronine] |  | 1.05 % of control | Effect on ATP-mediated YO-PRO-1 uptake (ATP 1 mM): able to reduce ATP-mediated YO-PRO-1 uptake |
| COc1ccc2c(c1OC)CN1CCc3cc4c(cc3C1C2)OCO4 (stereo not shown) [Tetrahydroberberine] |  | 26.9 % of control | Effect on ATP-mediated YO-PRO-1 uptake (ATP 1 mM): able to reduce ATP-mediated YO-PRO-1 uptake |
| CC[C@H](C)[C@@H]1NC(=O)[C@@H]2CCCN2C(=O)[C@@H](CC(C)C)OC(=O)CCNC(=O)[C@H](C)N(C)C(=O)[C@H](C(C)C)N(C)C1=O [Destrusin B] (cyclo([dHica]PI[NMeV][NMeA][βAla])) |  | 46.65 % of control |  |
| CC[C@H](C)C(=O)O[C@H]1CCC=C2C=C[C@H](C)[C@H](CC[C@@H](O)C[C@@H](O)CC(=O)O)[C@H]21 [Compactin] | 139.71 % of control |  |  |
| C[C@@H]1C[C@H](C)C[C@H](C)[C@@H](O)CC(=O)O[C@H]([C@@H]2CCC[C@H]2C(=O)O)C/C=C/C=C(/C#N)[C@H](O)[C@@H](C)C1 [Borrelidin] |  | 42.93 % of control |  |
| C=C(NC(=O)C(=C)NC(=O)c1csc(C2=N[C@@H]3c4csc(n4)[C@H]4NC(=O)c5csc(n5)[C@H]([C@](C)(O)[C@@H](C)O)NC(=O)[C@H]5CSC(=N5)/C(=C/C)NC(=O)[C@H]([C@@H](C)O)NC(=O)c5csc(n5)[C@]3(CC2)NC(=O)[C@H](C)NC(=O)C(=C)NC(=O)C(=C)NC(=O)[C@H](C(C)C)N[C@@H]2C=Cc3c([C@H](C)O)cc(nc3[C@H]2O)C(=O)O[C@@H]4C)n1)C(N)=O [Siomycin A] | 157.10 % of control |  |  |
| CC1(C)C[C@]23[C@@H]4COC(=O)[C@H]2CC[C@H]1[C@@H]3CC4=O [Quadrone] |  | 40.82 % of control |  |
| COc1cc2c3c(c1O)-c1cc(N(Cc4ccccc4)Cc4ccccc4)ccc1CC3N(C)CC2 (stereo not shown) [NSC785176] | 159.37 % of control |  |  |

| Molecule | P2X7 response (% of control) (screen for PAM activity) | P2X7 response (% of control) [1] | further results |
| --- | --- | --- | --- |
| CC(=O)OC(C)C1C2=C(C(=O)C[C@]1(C)O)C(=O)c1c(ccc(-c3ccc4c(c3O)C(=O)C3=C(C4=O)C(C(C)OC(C)=O)[C@@](C)(O)CC3=O)c1O)C2=O (stereo partly shown) [Julimycin II] | 180.28 % of control |  |  |
| Cc1c2oc3c(C)ccc(C(=O)N[C@@H]4C(=O)N[C@H](C(C)C)C(=O)N5CCC[C@H]5C(=O)N(C)CC(=O)N(C)[C@@H](C(C)C)C(=O)O[C@@H]4C)c3nc-2c(C(=O)N[C@@H]2C(=O)N[C@H](C(C)C)C(=O)N3CCC[C@H]3C(=O)N(C)CC(=O)N(C)[C@@H](C(C)C)C(=O)O[C@@H]2C)c(N)c1=O [Actinomycin] (I: T[dV]P[Sar][NMeV] / II: T[dV]P[Sar][NMeV]; ester I:1-I:C, II:1-II:C; linker I:N-II:N via Actinocin(9to1)) | 188.44 % of control |  |  |
| Ossamycin | 145.55 % of control |  |  |
| NC(=O)C#CC(N)=O [Aquamycin] |  | 15.18 % of control |  |
| Medicarpin | 140.60 % of control |  |  |
| c1cc2c(c3c1C[C@@H]1NCCc4cc5c(c-3c41)OCO5)OCO2 [NSC785157] | 152.97 % of control |  |  |
| O=C(O[C@@H]1Cc2c(O)cc(O)cc2O[C@@H]1c1ccc(O)c(O)c1)c1cc(O)c(O)c(O)c1 [ECG, epicatechin gallate] |  |  | IC50 (IC50 value (95% CI)): 4.96 µM |
| C[C@H]1Oc2cc3c(-c4c(O)cc(O)c5c(O)c6c(cc45)O[C@H](C)[C@@H](C)C6=O)c(O)cc(O)c3c(O)c2C(=O)[C@@H]1C [Chaetochromin A] |  | 12.08 % of control |  |
| C/C=C/C(=O)O [Crotonic acid] | 142.15 % of control |  |  |
| COc1cc([C@@H]2c3cc4c(c(O)c3C[C@H]3COC(=O)[C@@H]32)OCO4)cc(OC)c1OC [Β-peltatin] |  | 31.98 % of control |  |
| COc1cc(Cc2nccc3cc(OC)c(OC)cc23)c(C(C)=O)cc1OC [Acetopapaverine] |  | 34.92 % of control |  |
| CO[C@@H]1/C=C/O[C@@]2(C)Oc3c(C)c(O)c4c(c3C2=O)C(=N[C@@H]2CC[C@@H](O)O[C@H]2C)C=C(NC(=O)/C(C)=C\C(=O)[C@@H]2C[C@@H]2[C@H](O)[C@@H](C)[C@@H](O)[C@@H](C)[C@H](OC(C)=O)[C@@H]1C)C4=O [Tolypromycin Y] |  | 47.05 % of control |  |
| COc1ccc2c(c1)CC=C(CO)c1cc3c(cc1-2)OCO3 [tenuifolin] |  |  | Effect on P2X7 responses (purified glycosides/aglycone from potentiating extracts): no effect on P2X7 responses |
| Monoacetyl verrucan A | 170.65 % of control |  |  |
| Scopafungin | 159.83 % of control |  | Sensitivity of the potentiated ATP response to P2X7 antagonist AZ10606120 (AZ10606120 10 µM): could be prevented by pre-treatment with the P2X7 selective antagonist, AZ10606120; YO-PRO-1 uptake in the absence of ATP (HEK-hP2X7): increase in YO-PRO-1 uptake in the absence of ATP; Effect on ATP concentration–response curve (compound 10 µM): increase the maximum response to ATP and increase the sensitivity to ATP |
| O=C(O)c1cc(O)c(O)c(OC(=O)c2cc(O)c(O)c(O)c2)c1 [Digallic acid] |  | 0 % of control | Effect on ATP-mediated YO-PRO-1 uptake (ATP 1 mM): able to reduce ATP-mediated YO-PRO-1 uptake; IC50 (HEK-hP2X7, NCI Natural Product Set IV compounds, Fig. 1F, read-out: IC50 (dose inhibition experiments)): 4.05 µM; Mechanism of action from ATP concentration–response curve (compound 10 µM): potential non-competitive mechanism of action |
| CO[C@H]1[C@@H](O)[C@@H](C)O[C@@H](OC2CCC3(C)C(CCC4C3C(O)CC3(C)C(C5=CC(=O)OC5)CCC43O)C2)[C@@H]1O (stereo partly shown) [Sarnovid] |  | 38.95 % of control |  |

From paper PMC12062478, “Screening herbal and natural product libraries to aid discovery of novel allosteric modulators of human P2X7” (Purinergic Signalling, 2024)
